The supplement of paper PMC10307832

The cell lines below were run with CC(C)CCN1c2nc(Nc3cc(F)c(O)c(F)c3)ncc2N(C)C(=O)C1C [BI-D1870] + Nc1nc2[nH]cc(CCc3ccc(C(=O)N[C@@H](CCC(=O)O)C(=O)O)cc3)c2c(=O)[nH]1 [Pemetrexed] (partner 0.2 µM) (assay: relative viability (nuclei count vs DMSO), 5 days (fraction); higher = more cells survive). Conditions: first compound 0.04 µM.
Summary of the method: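 Relative viability is defined as nuclei in treated wells over nuclei in vehicle wells. Duplicate plates were run and medians reported. Lung cancer cell lines in 1536-well plates were dosed by pin tool one day after seeding, with one drug or with a fixed anchor-drug dose plus five library-drug doses (not always all listed) in √10 steps, and nuclei were counted after 5 days.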

| Cell Line | relative viability |
| --- | --- |
| HOP-62 | 0.331 |
| LU99A | 0.178 |
| BEN | 0.784 |
| HARA | 0.234 |
| HCC-78 | 1.06 |
| NCI-H322M | 0.632 |
| LCLC-97TM1 | 0.173 |
| NCI-H2009 | 1.06 |
| A-427 | 1.02 |
| NCI-H441 | 0.262 |
| NCI-H661 | 0.913 |
| NCI-H1734 | 0.403 |
| NCI-H460 | 0.0638 |
| NCI-H2347 | 0.515 |
| SK-LU-1 | 1.1 |
| 201T | 0.319 |
| NCI-H1915 | 0.473 |

| Cell Line | relative viability |
| --- | --- |
| HCC-827 | 0.184 |
| LXF-289 | 0.959 |
| NCI-H23 | 1.12 |
| NCI-H647 | 0.155 |
| CAL-12T | 1.29 |
| NCI-H1651 | 0.566 |
| EPLC-272H | 0.325 |
| NCI-H2228 | 0.33 |
| NCI-H1355 | 1.04 |
| NCI-H3122 | 0.187 |
| NCI-H1437 | 0.335 |
| NCI-H1755 | 0.497 |
| NCI-H2023 | 0.24 |
| HCC-15 | 0.222 |
| PC-14 | 0.124 |
| EKVX | 0.399 |

Same assay, conditions: first compound 0.1265 µM

| Cell Line | relative viability |
| --- | --- |
| HOP-62 | 0.333 |
| LU99A | 0.2 |
| BEN | 0.628 |
| HARA | 0.227 |
| HCC-78 | 0.889 |
| NCI-H322M | 0.564 |
| LCLC-97TM1 | 0.188 |
| NCI-H2009 | 1.11 |
| A-427 | 0.982 |
| NCI-H441 | 0.279 |
| NCI-H661 | 0.906 |
| NCI-H1734 | 0.4 |
| NCI-H460 | 0.0586 |
| NCI-H2347 | 0.443 |
| SK-LU-1 | 0.918 |
| 201T | 0.308 |
| NCI-H1915 | 0.489 |

| Cell Line | relative viability |
| --- | --- |
| HCC-827 | 0.31 |
| LXF-289 | 0.857 |
| NCI-H23 | 0.585 |
| NCI-H647 | 0.162 |
| CAL-12T | 1.16 |
| NCI-H1651 | 0.561 |
| EPLC-272H | 0.355 |
| NCI-H2228 | 0.345 |
| NCI-H1355 | 0.998 |
| NCI-H3122 | 0.194 |
| NCI-H1437 | 0.303 |
| NCI-H1755 | 0.469 |
| NCI-H2023 | 0.255 |
| HCC-15 | 0.23 |
| PC-14 | 0.129 |
| EKVX | 0.418 |

Same assay, conditions: first compound 0.4 µM

| Cell Line | relative viability |
| --- | --- |
| HOP-62 | 0.379 |
| LU99A | 0.171 |
| BEN | 0.743 |
| HARA | 0.267 |
| HCC-78 | 0.947 |
| NCI-H322M | 0.596 |
| LCLC-97TM1 | 0.16 |
| NCI-H2009 | 1.1 |
| A-427 | 0.994 |
| NCI-H441 | 0.245 |
| NCI-H661 | 0.931 |
| NCI-H1734 | 0.416 |
| NCI-H460 | 0.0621 |
| NCI-H2347 | 0.427 |
| SK-LU-1 | 1.01 |
| 201T | 0.307 |
| NCI-H1915 | 0.458 |

| Cell Line | relative viability |
| --- | --- |
| HCC-827 | 0.241 |
| LXF-289 | 0.876 |
| NCI-H23 | 0.602 |
| NCI-H647 | 0.192 |
| CAL-12T | 1.33 |
| NCI-H1651 | 0.547 |
| EPLC-272H | 0.242 |
| NCI-H2228 | 0.349 |
| NCI-H1355 | 1.03 |
| NCI-H3122 | 0.203 |
| NCI-H1437 | 0.323 |
| NCI-H1755 | 0.408 |
| NCI-H2023 | 0.288 |
| HCC-15 | 0.229 |
| PC-14 | 0.141 |
| EKVX | 0.359 |

Same assay, conditions: first compound 1.265 µM

| Cell Line | relative viability |
| --- | --- |
| HOP-62 | 0.409 |
| LU99A | 0.183 |
| BEN | 0.96 |
| HARA | 0.243 |
| HCC-78 | 0.916 |
| NCI-H322M | 0.59 |
| LCLC-97TM1 | 0.221 |
| NCI-H2009 | 0.993 |
| A-427 | 0.963 |
| NCI-H441 | 0.237 |
| NCI-H661 | 0.928 |
| NCI-H1734 | 0.412 |
| NCI-H460 | 0.0582 |
| NCI-H2347 | 0.438 |
| SK-LU-1 | 0.868 |
| 201T | 0.344 |
| NCI-H1915 | 0.419 |

| Cell Line | relative viability |
| --- | --- |
| HCC-827 | 0.254 |
| LXF-289 | 0.877 |
| NCI-H23 | 0.684 |
| NCI-H647 | 0.218 |
| CAL-12T | 1.15 |
| NCI-H1651 | 0.629 |
| EPLC-272H | 0.295 |
| NCI-H2228 | 0.353 |
| NCI-H1355 | 1.15 |
| NCI-H3122 | 0.222 |
| NCI-H1437 | 0.355 |
| NCI-H1755 | 0.465 |
| NCI-H2023 | 0.255 |
| HCC-15 | 0.215 |
| PC-14 | 0.133 |
| EKVX | 0.67 |

Same assay, conditions: first compound 4 µM

| Cell Line | relative viability |
| --- | --- |
| HOP-62 | 0.365 |
| LU99A | 0.135 |
| BEN | 0.697 |
| HARA | 0.218 |
| HCC-78 | 0.919 |
| NCI-H322M | 0.517 |
| LCLC-97TM1 | 0.175 |
| NCI-H2009 | 0.877 |
| A-427 | 0.784 |
| NCI-H441 | 0.265 |
| NCI-H661 | 0.857 |
| NCI-H1734 | 0.347 |
| NCI-H460 | 0.0624 |
| NCI-H2347 | 0.393 |
| SK-LU-1 | 0.366 |
| 201T | 0.316 |
| NCI-H1915 | 0.381 |
| HCC-827 | 0.141 |
| LXF-289 | 0.764 |
| NCI-H23 | 0.316 |
| NCI-H647 | 0.127 |
| CAL-12T | 0.736 |
| NCI-H1651 | 0.54 |
| EPLC-272H | 0.202 |
| NCI-H2228 | 0.195 |
| NCI-H1355 | 0.963 |
| NCI-H3122 | 0.202 |
| NCI-H1437 | 0.338 |
